In patent US8455475B2 (Gruenenthal GmbH, priority 2009, dated 2013):

target: T1, rat B1R (bradykinin receptor 1) (Rattus norvegicus, UniProt P97583); test: FLIPR Ca2+ assay (Fluo-4) on CHO K1 cells stably transfected with the B1R gene of the rat (rB1R cells): % inhibition at 10 μM / IC50, agonist Des-Arg9-bradykinin; format: cell-based; conditions: CHO-K1, rat B1R
T1 construct: expressed in transfected cells; host or cells: CHO K1 cells
T1 sequence (P97583 1-337): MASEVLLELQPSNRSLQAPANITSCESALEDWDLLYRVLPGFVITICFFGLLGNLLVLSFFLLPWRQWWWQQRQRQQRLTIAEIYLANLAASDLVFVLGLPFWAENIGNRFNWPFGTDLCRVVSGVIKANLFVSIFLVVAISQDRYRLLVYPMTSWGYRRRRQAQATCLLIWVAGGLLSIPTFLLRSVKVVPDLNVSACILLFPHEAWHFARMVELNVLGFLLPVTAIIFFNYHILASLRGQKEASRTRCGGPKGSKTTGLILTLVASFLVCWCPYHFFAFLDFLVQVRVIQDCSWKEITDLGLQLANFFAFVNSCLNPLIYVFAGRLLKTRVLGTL
In short: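 Loading with Fluo-4 occurs for 60 min at 37 °C, or alternatively in buffer A, before FLIPR measurement. Compounds are applied, incubated 10–20 min, and then the EC80 agonist is added. Antagonism appears as reduced peak Ca2+ signal relative to maximal inhibition.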

inhibition at 10 µM [%] | SMILES
103 | O=C(NC1CCc2ccc(C(=O)N3CCC4(CC3)CCN(c3ccncc3)C4)cc21)c1ccccc1F (centres unmarked) [IND_CC-401, 2-Fluoro-N-[6-(2-pyridin-4-yl-2,8-diazaspiro[4.5]decane-8-carbonyl)-2,3-dihydro-1H-inden-1-yl]-benzamide]
104 | COc1ccc(C(=O)NC2CCc3ccc(C(=O)N4CCC5(CC4)CCN(c4ccncc4)CC5)cc32)c(Cl)c1 (centres unmarked) [IND_CC-211, 2-Chloro-4-methoxy-N-[6-(9-pyridin-4-yl-3,9-diazaspiro[5.5]undecane-3-carbonyl)-2,3-dihydro-1H-inden-1-yl]-benzamide]
101 | O=C(c1ccc2c(c1)C(NS(=O)(=O)c1c(Cl)cc(Cl)cc1Cl)CC2)N1CCC2(CCN(c3ccncc3)CC2)C1 (centres unmarked) [IND_CC-407, 2,4,6-Trichloro-N-[6-(8-pyridin-4-yl-2,8-diazaspiro[4.5]decane-2-carbonyl)-2,3-dihydro-1H-inden-1-yl]-benzenesulfonic acid amide]
59 | CC(=O)NC1CCc2ccc(C(=O)N3CCC4(CCN(c5ccncc5)CC4)C3)cc21 (centres unmarked) [IND_CC-375, N-[6-(8-Pyridin-4-yl-2,8-diazaspiro[4.5]decane-2-carbonyl)-2,3-dihydro-1H-inden-1-yl]-acetamide]

The remaining lines, values behind:

SMILES | inhibition at 10 µM [%]
N#Cc1ccc(CN2CCC3(CC2)CCN(C(=O)c2ccc4c(c2)C(NC(=O)c2cc(Cl)ccc2F)CC4)CC3)cc1 (centres unmarked) [IND_CC-653, 5-Chloro-N-[6-[9-[(4-cyano-phenyl)-methyl]-3,9-diazaspiro[5.5]undecane-3-carbonyl]-2,3-dihydro-1H-inden-1-yl]-2-fluoro-benzamide] | 64
O=C(NC1CCc2ccc(C(=O)N3CCC4(CCN(Cc5ccc(F)c(F)c5)CC4)C3)cc21)c1cc(Cl)ccc1F (centres unmarked) [IND_CC-621, 5-Chloro-N-[6-[8-[(3,4-difluoro-phenyl)-methyl]-2,8-diazaspiro[4.5]decane-2-carbonyl]-2,3-dihydro-1H-inden-1-yl]-2-fluoro-benzamide] | 67
Cc1nc[nH]c1CN1CCC2(CC1)CCN(C(=O)c1ccc3c(c1)C(NC(=O)c1ccccc1Cl)CC3)CC2 (centres unmarked) [IND_CC-527, 2-Chloro-N-[6-[9-[(5-methyl-3H-imidazol-4-yl)-methyl]-3,9-diazaspiro[5.5]undecane-3-carbonyl]-2,3-dihydro-1H-inden-1-yl]-benzamide] | 98
COc1ccc(CN2CCC3(CC2)CCN(C(=O)c2ccc4c(c2)C(N2Cc5c(c6c(Cl)cccc6n5C)C2=O)CC4)C3)cc1F (centres unmarked) [IND_CC-794, 8-Chloro-2-[6-[8-[(3-fluoro-4-methoxy-phenyl)-methyl]-2,8-diazaspiro[4.5]-decane-2-carbonyl]-2,3-dihydro-1H-inden-1-yl]-4-methyl-3,4-dihydro-2H-pyrrolo[3,4-b]indol-1-one] | 59
N#Cc1ccccc1S(=O)(=O)N1CCC2(CCN(C(=O)c3ccc4c(c3)C(N(C(=O)c3ccccc3Cl)C3CC3)CC4)C2)CC1 (centres unmarked) [IND_CC-618, 2-Chloro-N-[6-[8-[(2-cyano-phenyl)sulfonyl]-2,8-diazaspiro[4.5]decane-2-carbonyl]-2,3-dihydro-1H-inden-1-yl]-N-cyclopropyl-benzamide] | 61
CN(C1CCc2ccc(C(=O)N3CCC4(CC3)CCN(c3ccncc3)CC4)cc21)S(=O)(=O)c1ccc(C(F)(F)F)cc1Cl (centres unmarked) [IND_CC-320, 2-Chloro-N-methyl-N-[6-(9-pyridin-4-yl-3,9-diazaspiro[5.5]undecane-3-carbonyl)-2,3-dihydro-1H-inden-1-yl]-4-(trifluoromethyl)-benzenesulfonic acid amide] | 83
O=C(NC1CCc2ccc(C(=O)N3CCC4(CCN(Cc5ccc(F)c(F)c5)CC4)C3)cc21)c1cc(C(F)(F)F)ccc1Cl (centres unmarked) [IND_CC-633, 2-Chloro-N-[6-[8-[(3,4-difluoro-phenyl)-methyl]-2,8-diazaspiro[4.5]decane-2-carbonyl]-2,3-dihydro-1H-inden-1-yl]-5-(trifluoromethyl)-benzamide] | 86
